Assay results taken from US10435364B2, “Compounds for use as bromodomain inhibitors” (Albert Ludwigs Universität Freiburg, priority 2013, dated 2019).
Where two headings read alike, the source gives them in different places.

Experiments:
BRD4-BD1 = target: T1, BRD4-BD1 (Homo sapiens, UniProt O60885); assay: Isothermal titration calorimetry (ITC), dissociation constant; format: binding
T1 construct: BRD4-BD1 was expressed and purified as described previously; made in house
Method: Data were obtained in discrete titration experiments with an injection volume of 12 μl per injection. Subsequently, the heats per injection were calculated as integrals and after normalization against the molar concentrations plotted against the molar ratio as implemented in Microcal Origin. Finally, data were fitted according to a single set of sites binding model with
[formula] as function to calculate the overall sum of heat of the titration and with
[formula] […] A correction term was included to compensate for displacement of volume of the sample cell in the course of subsequent injections according to the manufacturer's manual “ITC Data Analysis in Origin” (Microcal).
The dissociation constant has molar units which correspond to the concentration of ligand at which the binding site on a particular protein is half occupied, i.e. the concentration of the ligand at which the concentration of protein with ligand bound equals the concentration of protein with no ligand bound. The smaller the dissociation constant, the higher the affinity between ligand and protein.

HeLa = assay: Antiproliferative activity, HeLa cells; format: cell-based; settings: at a high concentration of 50 μM
Method: BRD4 is a validated therapeutic target in NUT midline carcinoma and in acute myeloid and MLL-fusion leukaemia. The proliferation inhibition potential of the virtual screening hits in HL-60 and HeLa cell lines for the compound of formula (4) was assessed.

leukaemia cell lines = assay: NCI-60 DTP Human Tumour Cell Line Screen, leukaemia panel; format: cell-based; settings: NCI-60 screen, 10 μM
HL-60(TB) = assay: NCI-60 DTP Human Tumour Cell Line Screen; format: cell-based; settings: NCI-60 screen, 10 μM, leukaemia panel
SR = assay: NCI-60 DTP Human Tumour Cell Line Screen; format: cell-based; settings: NCI-60 screen, 10 μM, leukaemia panel
OVCAR-5 = assay: NCI-60 DTP Human Tumour Cell Line Screen; format: cell-based; settings: NCI-60 screen, 10 μM, ovarian cancer
COLO 205 = assay: NCI-60 DTP Human Tumour Cell Line Screen; format: cell-based; settings: NCI-60 screen, 10 μM, colon cancer
mice (male and female) = assay: Toxicity screening, single dose; format: in vivo
Text: […]. All studied organs and tissues had the structure characteristics and relative body weights for normal animals.

BET bromodomain family = system: T2, BET bromodomain family; assay: BROMOscan selectivity profile; format: binding, human
T2 construct: other: BROMOscan
Method: (§1) Bromodomain profiling was carried out on the basis of BROMOscan™. This platform accounted for the indirect determination of the dissociation constants between 19 bromodomains and the compound of formula (4), by binding competition against a reference immobilized ligand.
(§2) The target selectivity of the compound of formula (4) within the human BRD family was assessed by means of BROMOscan™. The binding of the compound to at least one representative protein of each BRD family was assessed.
Sphere size and colour indicate the binding affinity of the compound of formula (4) to the specific BRDs, as observed in the BROMOscan™ assay. Additionally, binding to PB1-BD4 was assessed by local ITC measurements. The dissociation constant (Kd) corresponding to each BRD in complex with the compound of formula (4) is indicated. […]

BRD2(1) = target: T3, BRD2(1) (Homo sapiens, UniProt P25440); assay: BROMOscan; format: binding; settings: BROMOscan
T3 construct: T7 phage strains displaying bromodomains; host or cells: T7 phage display in E. coli host derived from BL21

BRD3(1) = target: T4, BRD3(1) (Homo sapiens, UniProt Q15059); assay: BROMOscan; format: binding; settings: BROMOscan
T4 construct: T7 phage strains displaying bromodomains; host or cells: T7 phage display in E. coli host derived from BL21

BRD3(2) = target: T5, BRD3(2) (Homo sapiens, UniProt Q15059); assay: BROMOscan; format: binding; settings: BROMOscan
T5 construct: T7 phage strains displaying bromodomains; host or cells: T7 phage display in E. coli host derived from BL21

BRD4(1) = target: T6, BRD4(1) (Homo sapiens, UniProt O60885); assay: BROMOscan; format: binding; settings: BROMOscan, n=2; read-out: dissociation constant (Kd) in complex with BRD4-BD1
T6 construct: T7 phage strains displaying bromodomains; host or cells: T7 phage display in E. coli host derived from BL21

CREBBP = target: T7, CREBBP (Homo sapiens, UniProt Q92793); assay: BROMOscan; format: binding; settings: BROMOscan; read-out: binding affinity to CREBBP
T7 construct: T7 phage strains displaying bromodomains; host or cells: T7 phage display in E. coli host derived from BL21
Method: as §1, §2
(§3) Bromodomain profiling was carried out on the basis of BROMOscan™, which is a leading platform for identifying small molecule bromodomain inhibitors. BROMOscan™ employs a proprietary ligand binding site-directed competition assay to quantitatively measure interactions between test compounds and bromodomains. The reliable assay panel is suitable for high-throughput screening and delivers quantitative ligand binding data.
(§4) Compounds that bind the bromodomain prevent its binding to the immobilized ligand thus reducing the amount of protein captured. […] Hits are identified by measuring the amount of bromodomain captured in test versus control samples.
(§5) Bromodomain assays: T7 phage strains displaying bromodomains were grown in parallel in 24-well blocks in an E. coli host derived from the BL21 strain. E. coli were grown to log-phase and infected with T7 phage from a frozen stock (multiplicity of infection=0.4) and incubated with shaking at 32° C. until lysis (90-150 minutes). The lysates were centrifuged (5,000×g) and filtered (0.2 μm) to remove cell debris. […] The bound beads were blocked with excess biotin and washed with blocking buffer (SeaBlock (Pierce), 1% BSA, 0.05% Tween 20, 1 mM DTT) to remove unbound ligand and to reduce non-specific phage binding. […] Test compounds were prepared as 1000× stocks in 100% DMSO and subsequently diluted 1:25 in mono ethylene glycol (MEG). The compounds were then diluted directly into the assays such that the final concentrations of DMSO and MEG were 0.1% and 2.4%, respectively. All reactions were performed in polypropylene 384-well plates in a final volume of 0.02 ml. […] The bromodomain concentration in the eluates was measured by qPCR.
(§6) The % Ctrl values were determined as follows: % Ctrl=[(test compound signal-positive control signal)/(negative control signal-positive control signal)]×100
(§7) For 7 bromodomains other than the bromodomains from the BET family dissociation constants Kd were determined and the results are given in Table 3.

EP300 = target: T8, EP300 (Homo sapiens, UniProt Q09472); assay: BROMOscan; format: binding; settings: BROMOscan; read-out: binding affinity to EP300
T8 construct: T7 phage strains displaying bromodomains; host or cells: T7 phage display in E. coli host derived from BL21
T8 sequence (Q09472 1049-1156 limits assumed): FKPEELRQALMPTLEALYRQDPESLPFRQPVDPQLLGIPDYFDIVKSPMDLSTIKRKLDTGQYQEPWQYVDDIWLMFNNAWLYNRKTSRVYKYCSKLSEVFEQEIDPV
Method: as §1, §2, §3, §4, §5, §6, §7

T5 sequence (Q15059 306-415 limits assumed): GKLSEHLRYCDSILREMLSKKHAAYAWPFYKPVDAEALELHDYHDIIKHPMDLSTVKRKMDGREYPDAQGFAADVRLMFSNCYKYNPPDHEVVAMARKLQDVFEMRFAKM
T3 sequence (P25440 74-180 limits assumed): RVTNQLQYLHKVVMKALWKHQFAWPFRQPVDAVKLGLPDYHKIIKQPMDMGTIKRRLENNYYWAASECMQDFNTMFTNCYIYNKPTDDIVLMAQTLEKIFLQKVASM
T7 sequence (Q92793 1085-1192 limits assumed): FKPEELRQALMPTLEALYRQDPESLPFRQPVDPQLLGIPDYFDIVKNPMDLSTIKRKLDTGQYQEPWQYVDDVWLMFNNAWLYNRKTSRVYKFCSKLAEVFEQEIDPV
T4 sequence (Q15059 34-140 limits assumed): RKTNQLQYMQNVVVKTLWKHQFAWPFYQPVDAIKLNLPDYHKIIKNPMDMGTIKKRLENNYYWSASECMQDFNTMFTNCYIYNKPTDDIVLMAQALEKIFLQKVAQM

CCc1c(C(=O)Nc2cc(S(=O)(=O)N(CC)CC)ccc2O)[nH]c(C)c1C(C)=O [compound of formula (4)]
Kd (BRD4-BD1; ITC, 25° C., read-out: dissociation constant Kd for BRD4-BD1): 300 nM | Kd (BRD4-BD1; Table 1, target not given, values of formula (4) and (3) match ITC Kd for BRD4-BD1, read-out: pKd (converted)): 316 nM | antiproliferative activity against HeLa (HeLa): no antiproliferative activity | activity against the leukaemia cell lines (leukaemia cell lines): potent and selective activity | sensitivity in the cell line screen (growth inhibition) (HL-60(TB)): most sensitive | sensitivity in the cell line screen (growth inhibition) (SR): most sensitive | sensitivity in the cell line screen (growth inhibition) (OVCAR-5): most resistant | sensitivity in the cell line screen (growth inhibition) (COLO 205): most resistant | LD50 (mice (male and female); mice (male and female), single dose): higher than 2000 mg/kg of body weight | signs of toxicity (mice (male and female); mouse, in vivo, 2000 mg/kg): did not induce any signs of toxicity | binding specificity within the human BRD family (BET bromodomain family): bind specifically to the BET bromodomain family | affinity to BRD2-BD1 (BRD2(1)): nM range | affinity to BRD3 (both BRDs), BD1 (BRD3(1)): nM range | affinity to BRD3 (both BRDs), BD2 (BRD3(2)): nM range | Kd (BRD4(1)): 160 nM | Kd (CREBBP): ~3500 nM | Kd (EP300): ~3500 nM
